From ChEMBL document CHEMBL4483862, “Open-source discovery of chemical leads for next-generation chemoprotective antimalarials” (2018)

Tested on: Plasmodium berghei
Assay: Luciferase/luciferin-expressing antifolate-resistant parasites were used to infect a culture of HepG2 cells that were pre-incubated with compounds. Infected hepatocytes emit light due to the luciferase reaction. Assay results are presented as the percent inhibition of light emission compared to control. […]
Assay type: functional
Details: sporozoite; for IC90: read-out: LUCIFERASE INFECTION ASSAY - IC90
[1] = read-out: LUCIFERASE INFECTION ASSAY - IC50

Structure (SMILES) | IC90 | IC50 [1] | further results
Cc1cc(/C=N/Nc2ccc(Cl)nn2)c(C)n1-c1ccccc1Cl | 9.4 µM | – | IC50 (FFLUC_HILL_SLOPE 16.1, FFLUC_R_SQUARED 0.664, PBLUC_HILL_SLOPE 12.5, PBLUC_R_SQUARED 0.559, read-out: LUCIFERASE INFECTION ASSAY - IC50): 7.88 µM
CC(OC(=O)c1cccc(Cl)c1N)C(=O)N(C(C)C)C(C)C (stereo unspecified) | > 10 µM | > 10 µM | –
O=C(Nc1cccc(F)c1)Nc1ccc2nc(-c3cccnc3)nn2c1 | > 10 µM | > 10 µM | –
c1coc(-c2c3c(nc4c2oc2ccccc24)CCCCCCCCCC3)c1 | > 10 µM | – | IC50 (FFLUC_HILL_SLOPE 1.77, FFLUC_R_SQUARED 0.636, read-out: LUCIFERASE INFECTION ASSAY - IC50): > 10 µM
Cc1ccc(Oc2ccc(OCC(=O)NCCNc3ccc4ccccc4c3)cc2)cc1 | 6.61 µM | – | IC50 (HEPG2TOX_HILL_SLOPE 2.47, HEPG2TOX_R_SQUARED 0.879, PBLUC_HILL_SLOPE 3.02, PBLUC_R_SQUARED 0.699, read-out: LUCIFERASE INFECTION ASSAY - IC50): 3.2 µM
CC(C)NC(=O)c1c(NC(=O)c2cc(F)cc(F)c2)nc2ccccn12 | 1.12 µM | – | IC50 (FFLUC_HILL_SLOPE 17.9, FFLUC_R_SQUARED 0.386, HEPG2TOX_HILL_SLOPE 1.01, HEPG2TOX_R_SQUARED 0.782, PBLUC_HILL_SLOPE 15.7, PBLUC_R_SQUARED 0.648, read-out: LUCIFERASE INFECTION ASSAY - IC50): 0.969 µM
O=C(CC1(O)C(=O)Nc2ccc(Br)cc21)c1ccc2c(c1)OCO2 (stereo unspecified) | > 8.46 µM | > 8.46 µM | –
COc1cc(Nc2nc3cnc(-c4cccnc4)cc3n2C)cc(OC)c1OC | > 10 µM | 8.65 µM | –
O=c1cc(CNC(CCCc2ccccc2)c2ccccc2)nc2ccc(Cl)cn12 (stereo unspecified) | > 10 µM | > 10 µM | –
CCCc1cc(=O)n2ncc(-c3ccccc3)c2[nH]1 | 12.2 µM | – | IC50 (HEPG2TOX_HILL_SLOPE 0.383, HEPG2TOX_R_SQUARED 0.727, PBLUC_HILL_SLOPE 12.3, PBLUC_R_SQUARED 0.782, read-out: LUCIFERASE INFECTION ASSAY - IC50): 10.2 µM
CCCn1c(-c2ccccc2)nc2c(c(=O)c3ccccc3n2C)c1=O | 3.93 µM | 3.2 µM | –
COc1ccc(F)cc1-c1ccnc2n[nH]c(-c3ccc(Cl)cc3)c12 | > 10 µM | – | IC50 (HEPG2TOX_HILL_SLOPE 2.34, HEPG2TOX_R_SQUARED 0.976, PBLUC_HILL_SLOPE 1.09, PBLUC_R_SQUARED 0.396, read-out: LUCIFERASE INFECTION ASSAY - IC50): 1.84 µM
CCCCNC(=O)c1c(NC(=O)COc2ccccc2)nc2ccc(C)cn12 | 8.47 µM | – | IC50 (FFLUC_HILL_SLOPE 32.7, FFLUC_R_SQUARED 0.34, HEPG2TOX_HILL_SLOPE 7.48, HEPG2TOX_R_SQUARED 0.362, PBLUC_HILL_SLOPE 14.2, PBLUC_R_SQUARED 0.182, read-out: LUCIFERASE INFECTION ASSAY - IC50): 7.25 µM
CC(C)n1ncc2cc(C(=O)Nc3cccc4c3CCCC4)cnc21 | 8.92 µM | – | IC50 (HEPG2TOX_HILL_SLOPE 1.91, HEPG2TOX_R_SQUARED 0.864, PBLUC_HILL_SLOPE 1.61, PBLUC_R_SQUARED 0.644, read-out: LUCIFERASE INFECTION ASSAY - IC50): 2.28 µM
Cc1ccc(-n2nnnc2COc2cc(C)ccc2C(C)C)c(C)c1 | > 9.81 µM | – | IC50 (PBLUC_HILL_SLOPE 3.14, PBLUC_R_SQUARED 0.65, read-out: LUCIFERASE INFECTION ASSAY - IC50): 6.61 µM
CCOc1ccccc1/C=N/n1c(-c2ccc(CC)cc2)cs/c1=N\c1cccc(OC)c1 | 3.81 µM | – | IC50 (PBLUC_HILL_SLOPE 10.6, PBLUC_R_SQUARED 0.562, read-out: LUCIFERASE INFECTION ASSAY - IC50): 3.1 µM
O=C(Nc1ccc(Oc2ccc(C(F)(F)F)cn2)c(Cl)c1)C1CC1 | 4.36 µM | – | IC50 (PBLUC_HILL_SLOPE 2.75, PBLUC_R_SQUARED 0.594, read-out: LUCIFERASE INFECTION ASSAY - IC50): 1.96 µM
COc1ccc(S(=O)(=O)N2CCCCC2)cc1NC(=O)c1nn(CC(C)C)c(=O)c2ccccc12 | 4.38 µM | – | IC50 (FFLUC_HILL_SLOPE 27.6, FFLUC_R_SQUARED 0.604, PBLUC_HILL_SLOPE 11.9, PBLUC_R_SQUARED 0.273, read-out: LUCIFERASE INFECTION ASSAY - IC50): 3.64 µM
COc1ccccc1-c1noc(-c2cc3c(s2)CCCCC3)n1 | 0.846 µM | – | IC50 (FFLUC_HILL_SLOPE 2.02, FFLUC_R_SQUARED 0.0931, PBLUC_HILL_SLOPE 0.909, PBLUC_R_SQUARED 0.727, read-out: LUCIFERASE INFECTION ASSAY - IC50): 0.0754 µM
COc1ccc(C2CCCN2Cc2ccc(C(N)=O)cc2)c(OC)c1 (stereo unspecified) | > 10 µM | > 10 µM | –
Cc1cccc(C(=O)Nc2cc(S(=O)(=O)N3CCOCC3)ccc2N2CCCCC2)n1 | > 10 µM | – | IC50 (HEPG2TOX_HILL_SLOPE 0.0521, HEPG2TOX_R_SQUARED 0.112, read-out: LUCIFERASE INFECTION ASSAY - IC50): > 10 µM
O=C(Nc1cnc2ccccc2c1)c1cccc(NC(=O)c2cccs2)c1 | > 10 µM | – | IC50 (PBLUC_HILL_SLOPE 0.461, PBLUC_R_SQUARED 0.664, read-out: LUCIFERASE INFECTION ASSAY - IC50): 0.217 µM

Structure (SMILES) | IC90 | IC50 [1] | further results
Cc1ccc(NC2=C(Cl)C(=O)c3ccccc3C2=O)cc1 | 7.81 µM | – | IC50 (HEPG2TOX_HILL_SLOPE 4.14, HEPG2TOX_R_SQUARED 0.984, PBLUC_HILL_SLOPE 5.35, PBLUC_R_SQUARED 0.565, read-out: LUCIFERASE INFECTION ASSAY - IC50): 5.18 µM
N#Cc1c(Cl)cccc1N1CCC(C#N)CC1 | > 13.4 µM | – | IC50 (HEPG2TOX_HILL_SLOPE 0.959, HEPG2TOX_R_SQUARED 0.904, PBLUC_HILL_SLOPE 1.25, PBLUC_R_SQUARED 0.0637, read-out: LUCIFERASE INFECTION ASSAY - IC50): 6.33 µM
CC(=O)Nc1cccc(Nc2nccc3[nH]c(-c4cccc(C(F)(F)F)c4)cc23)c1 | 2.28 µM | 0.705 µM | –
CC(C)C(Nc1ccc(C(F)(F)F)cc1Cl)C(=O)Nc1nc(-c2ccccc2Cl)cs1 (stereo unspecified) | 6.73 µM | – | IC50 (HEPG2TOX_HILL_SLOPE 4.1, HEPG2TOX_R_SQUARED 0.707, PBLUC_HILL_SLOPE 4.35, PBLUC_R_SQUARED 0.154, read-out: LUCIFERASE INFECTION ASSAY - IC50): 4.06 µM
Cc1cccc(/C=C2\SC(=O)N(CCC(=O)Nc3ccc(-c4nnc5n4CCCCC5)cc3)C2=O)c1 | > 10 µM | > 10 µM | –
O=C(Nc1nc2ccccn2c1C(=O)NC1CCCC1)c1cc(F)ccc1F | 6.63 µM | – | IC50 (HEPG2TOX_HILL_SLOPE 2.22, HEPG2TOX_R_SQUARED 0.565, PBLUC_HILL_SLOPE 4.18, PBLUC_R_SQUARED 0.45, read-out: LUCIFERASE INFECTION ASSAY - IC50): 3.92 µM
Oc1ccccc1-c1cc(-c2ccccc2)nn1Cc1ccccc1 | 3.93 µM | – | IC50 (PBLUC_HILL_SLOPE 14.4, PBLUC_R_SQUARED 0.373, read-out: LUCIFERASE INFECTION ASSAY - IC50): 3.37 µM
Cc1ccccc1C(c1ncccc1C)N(C)C(=O)C1CCN(C(=O)c2cccc(Cl)c2)CC1 (stereo unspecified) | > 6.93 µM | > 6.93 µM | –
Cc1ccc2c(C)cc(Sc3nc4ccccc4s3)nc2c1 | > 10 µM | > 10 µM | –
Fc1ccc(CNc2ccc3ncc(Br)n3n2)cc1 | > 10.3 µM | – | IC50 (FFLUC_HILL_SLOPE 12.6, FFLUC_R_SQUARED 0.212, PBLUC_HILL_SLOPE 1.62, PBLUC_R_SQUARED 0.732, read-out: LUCIFERASE INFECTION ASSAY - IC50): 5.26 µM
COc1cc(NC(=S)Nc2ccc(Cl)cc2)cc(C(F)(F)F)c1 | > 9.15 µM | > 9.15 µM | –
Cc1ccc(NS(=O)(=O)c2ccc(C(=O)NNC(=O)COc3ccc(C#N)cc3)cc2)cc1 | > 10 µM | > 10 µM | –
CN(C)c1ccc(/C=C2\CCn3c2nc2scc(-c4ccccc4)c2c3=O)cc1[N+](=O)[O-] | > 10 µM | > 10 µM | –
CCc1cc[n+](CC(=O)Nc2cc3oc4ccccc4c3cc2OC)cc1 | 9.36 µM | – | IC50 (HEPG2TOX_HILL_SLOPE 8.94, HEPG2TOX_R_SQUARED 0.562, PBLUC_HILL_SLOPE 18.1, PBLUC_R_SQUARED 0.422, read-out: LUCIFERASE INFECTION ASSAY - IC50): 8.29 µM
CCOC(=O)c1c[nH]c2c(F)cc(F)cc2c1=O | > 13 µM | > 13 µM | –
Cc1ccc(-c2csc(NC(=O)CCn3ccnc3)n2)c(C)c1 | > 10 µM | > 10 µM | –
COc1ccc(C(=O)/C(C#N)=N/Nc2cccc(Cl)c2Cl)cc1 | 9.32 µM | – | IC50 (HEPG2TOX_HILL_SLOPE 1.05, HEPG2TOX_R_SQUARED 0.901, PBLUC_HILL_SLOPE 1.18, PBLUC_R_SQUARED 0.493, read-out: LUCIFERASE INFECTION ASSAY - IC50): 1.44 µM
O=[N+]([O-])c1ccc(-c2[nH]nc(-c3ccccc3)c2-c2ccc3ccccc3n2)cc1 | 9.84 µM | – | IC50 (FFLUC_HILL_SLOPE 2.78, FFLUC_R_SQUARED 0.0561, HEPG2TOX_HILL_SLOPE 6.28, HEPG2TOX_R_SQUARED 0.62, PBLUC_HILL_SLOPE 3.02, PBLUC_R_SQUARED 0.452, read-out: LUCIFERASE INFECTION ASSAY - IC50): 4.75 µM
CCOc1ccc2nc(NC(=O)C3Cc4ccccc4CN3S(=O)(=O)c3ccc(C)cc3)sc2c1 (stereo unspecified) | > 10 µM | > 10 µM | –
O=C(Nc1ccccc1)Nc1nnc(C(F)(F)F)s1 | 1.07 µM | – | IC50 (HEPG2TOX_HILL_SLOPE 2.53, HEPG2TOX_R_SQUARED 0.953, PBLUC_HILL_SLOPE 4.44, PBLUC_R_SQUARED 0.774, read-out: LUCIFERASE INFECTION ASSAY - IC50): 0.65 µM
CC(C)(C)c1ccc(OCC(=O)NNC(=O)Cc2csc(-c3ccccc3)n2)cc1 | > 10 µM | > 10 µM | –
